For assay [1], the target named is T1, SARS-CoV-2 nsp12 NiRAN domain (Severe acute respiratory syndrome coronavirus 2, UniProt P0DTD1). Put plainly: biochemical. To be noted: for IC50 / IC50 for NiRAN-dependent AMPylation of nsp9: n = 4; for IC50: read-out: IC50 for NiRAN-dependent AMPylation of nsp9.
The target in a further assay is nsp12 (Severe acute respiratory syndrome coronavirus 2, UniProt P0DTD1). The assay is classed as binding, SARS-CoV-2.
Assay [2] deals with T1, SARS-CoV-2 nsp12 NiRAN domain. In kind it is biochemical.
A further assay has as its target SARS-CoV-2 nsp12 (Severe acute respiratory syndrome coronavirus 2, UniProt P0DTD1). In kind it is binding.
Another assay deals with SARS-CoV-1 nsp12 (Severe acute respiratory syndrome coronavirus, UniProt P0C6X7). The assay is classed as binding.
A further assay has as its target MERS nsp12 (Middle East respiratory syndrome-related coronavirus, UniProt K9N7C7). The assay is classed as binding, MERS-CoV.
For the next assay, the target named is human SelO (Homo sapiens, UniProt Q9BVL4, U667C). The assay is classed as binding.
human SelO, sequence (Q9BVL4 with tags, fused parts or gaps U667C limits assumed): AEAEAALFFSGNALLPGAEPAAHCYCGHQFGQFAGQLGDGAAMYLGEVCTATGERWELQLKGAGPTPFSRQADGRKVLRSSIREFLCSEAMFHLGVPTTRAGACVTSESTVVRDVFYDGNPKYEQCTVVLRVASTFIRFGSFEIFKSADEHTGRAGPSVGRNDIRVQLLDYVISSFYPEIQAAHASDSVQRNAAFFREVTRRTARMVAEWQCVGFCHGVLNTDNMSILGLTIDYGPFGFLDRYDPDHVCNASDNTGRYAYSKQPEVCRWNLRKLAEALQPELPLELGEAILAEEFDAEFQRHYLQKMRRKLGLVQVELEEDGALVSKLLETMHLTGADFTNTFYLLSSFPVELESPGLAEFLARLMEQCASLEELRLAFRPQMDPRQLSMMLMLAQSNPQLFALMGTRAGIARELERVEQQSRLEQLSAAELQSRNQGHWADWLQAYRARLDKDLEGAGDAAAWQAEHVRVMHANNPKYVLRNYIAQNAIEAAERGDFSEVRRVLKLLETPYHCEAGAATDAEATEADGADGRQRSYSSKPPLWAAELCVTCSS
The target in a further assay is nsp12 RdRp (Severe acute respiratory syndrome coronavirus 2, UniProt P0DTD1). In kind it is biochemical, SARS-CoV-2.
Assay [3] deals with T2, Flag-nsp12 (Severe acute respiratory syndrome coronavirus 2, UniProt P0DTD1). The assay is classed as cell-based, SARS-CoV-2.
In a further assay the test system is SARS-CoV-2-Wu-1-zsGreen. As to the kind of experiment: microbe, parasite or virus in culture. Conditions: for EC50: Severe acute respiratory syndrome coronavirus 2, read-out: EC50 for viral replication (infectivity). The assay is classed as cell-based.
For assay [4], the target named is T2, Flag-nsp12. In kind it is cell-based, SARS-CoV-2. The source holds these as a separate data set.
The next assay has as its system SARS-CoV-2. Conditions: cited from earlier work.
Another assay has as its target SARS-CoV-2 main protease. To be noted: cited from earlier work.
Another assay relates to NiRAN. To be noted: cited from earlier work.

Bounds are passed on as bounds.

The IC50 is the concentration at which inhibition is half-maximal. Broadly, the Ki is a dissociation constant, usually derived from enzyme kinetics or from competition with a known ligand. The kinact is the rate constant of inactivation at saturating inhibitor. As usually defined, the EC50 is the concentration at which the effect is half-maximal.

MERS nsp12, sequence (K9N7C7 4378-5310 limits assumed): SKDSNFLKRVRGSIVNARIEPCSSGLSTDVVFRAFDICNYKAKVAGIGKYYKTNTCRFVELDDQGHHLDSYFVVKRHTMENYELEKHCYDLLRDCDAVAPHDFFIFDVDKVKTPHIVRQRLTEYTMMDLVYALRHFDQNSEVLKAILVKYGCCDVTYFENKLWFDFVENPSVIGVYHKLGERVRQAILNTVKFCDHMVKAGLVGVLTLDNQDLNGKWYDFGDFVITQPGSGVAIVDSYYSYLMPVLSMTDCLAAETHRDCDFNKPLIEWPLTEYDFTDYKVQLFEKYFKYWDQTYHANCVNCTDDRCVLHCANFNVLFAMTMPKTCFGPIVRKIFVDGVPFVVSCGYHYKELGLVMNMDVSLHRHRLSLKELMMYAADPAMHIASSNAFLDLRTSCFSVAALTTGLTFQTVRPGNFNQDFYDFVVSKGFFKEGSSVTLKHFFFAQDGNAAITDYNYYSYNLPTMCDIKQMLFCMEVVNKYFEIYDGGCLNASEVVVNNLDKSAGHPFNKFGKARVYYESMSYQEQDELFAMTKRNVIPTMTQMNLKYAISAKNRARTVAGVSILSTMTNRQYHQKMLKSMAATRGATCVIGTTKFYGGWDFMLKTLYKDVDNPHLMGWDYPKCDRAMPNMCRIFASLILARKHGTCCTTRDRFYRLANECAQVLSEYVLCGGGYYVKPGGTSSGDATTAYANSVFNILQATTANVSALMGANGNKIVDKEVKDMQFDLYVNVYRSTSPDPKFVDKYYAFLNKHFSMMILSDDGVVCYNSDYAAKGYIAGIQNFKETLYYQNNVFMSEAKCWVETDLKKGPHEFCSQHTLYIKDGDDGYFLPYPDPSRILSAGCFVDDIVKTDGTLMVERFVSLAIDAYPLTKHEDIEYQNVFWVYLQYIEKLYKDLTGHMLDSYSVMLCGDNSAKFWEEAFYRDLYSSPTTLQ

As for `O=c1cc(CCl)nc2ccc(Cl)cn12` [NCI-1], the IC50 in [1] was 7.32 µM. Also, the “effect on thermal stability of nsp12” value at nsp12 is given as “increase in the thermal stability of nsp12”. The “inhibition of NiRAN-dependent RNAylation of nsp9” value in assay [2] is “inhibition of NiRAN-dependent RNAylation of nsp9”. For the same molecule, the “covalent binding to nsp12 (intact mass shift)” value on SARS-CoV-2 nsp12 is “covalent addition”.
`COC(=O)c1cnn2c(O)cc(CCl)nc12` [NCI-2, methyl 5-(chloromethyl)-7-hydroxypyrazolo[1,5-a]pyrimidine-3-carboxylate]: in assay [1], the inhibition constant Ki was found to be 16.3 µM and the half-maximal inhibitory concentration (IC50) was 4.36 µM. Further, the kinact in assay [1] (read-out: rate of inactivation constant kinact) was 0.0024 s⁻¹. The kinact/KI in assay [1] (read-out: second order rate constant kinact/Ki) is 147 M⁻¹ s⁻¹. On nsp12, the “effect on thermal stability of nsp12” value is reported as “increase in the thermal stability of nsp12”. In assay [2], the “inhibition of NiRAN-dependent RNAylation of nsp9” value is “inhibition of NiRAN-dependent RNAylation of nsp9”. In addition, the “covalent binding to nsp12 (intact mass shift)” value on SARS-CoV-2 nsp12 is listed as “covalent addition”. In addition, at SARS-CoV-1 nsp12, the “covalent binding to SARS-CoV-1 nsp12” value is “covalently binds”. Moreover, the “binding to MERS NiRAN (nsp12)” value at MERS nsp12 was “fails to bind”. Further, at human SelO, the “binding to SelO” value is recorded as “fails to bind”. Besides, the “effect on nsp12 polymerase (RdRp) activity” value at nsp12 RdRp was “did not impact nsp12 polymerase activity”. The “RNAylation activity of Flag-nsp12 from treated cells” value on Flag-nsp12 [3] is “marked reduction in its ability to RNAylate nsp9”. Also, in the assay with SARS-CoV-2-Wu-1-zsGreen, the “concentration at which inhibition of viral replication was observed” value turned out to be 200 µM and the concentration for a half-maximal effect (EC50) is above 200 µM.
Turning to `C#CCOC(=O)c1cnn2c(O)cc(CCl)nc12` [NCI-3, Prop-2-yn-1-yl 5-(chloromethyl)-7-hydroxypyrazolo[1,5-a]pyrimidine-3-carboxylate], the IC50 in assay [1] is 10.4 µM. For the same molecule, on Flag-nsp12 [4], the “binding to nsp12 in cells (biotinylation after click reaction)” value is on record as “major biotinylated species corresponding to nsp12”.
As for `C#CCNc1cc(CCl)nc2c(C(=O)OC)cnn12` [SW395929-1, Methyl 5-(chloromethyl)-7-(prop-2-yn-1-ylamino)pyrazolo[1,5-a]pyrimidine-3-carboxylate], the “IC50 for NiRAN-dependent AMPylation of nsp9” value (“IC50 … of nsp9” below) in assay [1] is “No activity up to 500 μM”.
Turning to `O=C(O)c1cnn2c(O)cc(CCl)nc12` [SW396061-1, 5-(Chloromethyl)-7-hydroxypyrazolo[1,5-a]pyrimidine-3-carboxylic acid], the “IC50 … of nsp9” value in assay [1] was “No activity up to 500 μM”.
For `C#CCNC(=O)c1cnn2c(O)cc(CCl)nc12` [SW396062-1, 5-(Chloromethyl)-7-hydroxy-N-(prop-2-yn-1-yl)pyrazolo[1,5-a]pyrimidine-3-carboxamide], in assay [1], the IC50 is above 500 µM.
Regarding `COC(=O)c1cnn2c(O)cc(CO)nc12` [SW396063-1, Methyl 7-hydroxy-5-(hydroxymethyl)pyrazolo[1,5-a]pyrimidine-3-carboxylate], the half-maximal inhibitory concentration (IC50) in assay [1] came to 371 µM.
Regarding `COC(=O)c1cnn2c(O)cc(C=O)nc12` [SW396064-1, Methyl 5-formyl-7-hydroxypyrazolo[1,5-a]pyrimidine-3-carboxylate], the “IC50 … of nsp9” value in [1] was “No activity up to 500 μM”.
As to `COC(=O)c1cnn2c(O)cc(/C=C/C(=O)OC(C)(C)C)nc12` [SW396065-1, Methyl (E)-5-(3-(tert-butoxy)-3-oxoprop-1-en-1-yl)-7-hydroxypyrazolo[1,5-a]pyrimidine-3-carboxylate], the “IC50 … of nsp9” value in assay [1] is reported as “No activity up to 500 μM”.
On the same count and under the same terms, as for `COC(=O)c1cnn2c(O)cc(/C=C/C(=O)O)nc12` [SW396066-1, (E)-3-(7-hydroxy-3-(methoxycarbonyl)pyrazolo[1,5-a]pyrimidin-5-yl)acrylic acid], the entry is “No activity up to 500 μM”.
Same read-out and setting: as for `COC(=O)c1cnn2c(O)cc(/C=C/C(N)=O)nc12` [SW396067-1, Methyl (E)-5-(3-amino-3-oxoprop-1-en-1-yl)-7-hydroxypyrazolo[1,5-a]pyrimidine-3-carboxylate], the entry is “No activity up to 500 μM”.
Turning to `COC(=O)c1cn(C)n2c(=O)cc(CCl)nc12` [SW396262-1, Methyl 5-(chloromethyl)-1-methyl-7-oxo-1,7-dihydropyrazolo[1,5-a]pyrimidine-3-carboxylate], the half-inhibitory concentration (IC50) in assay [1] is above 500 µM.
`COC(=O)c1cnn2c(OC)cc(CCl)nc12` [SW396271-1, Methyl 5-(chloromethyl)-7-methoxypyrazolo[1,5-a]pyrimidine-3-carboxylate]: the IC50 in assay [1] is above 500 µM.
For `COC(=O)c1cnn2c(O)cc(C(C)Cl)nc12` (stereo not shown) [SW396272-1, Methyl 5-(1-chloroethyl)-7-hydroxypyrazolo[1,5-a]pyrimidine-3-carboxylate], the “IC50 … of nsp9” value in assay [1] is “No activity up to 500 μM”.
Still for that read-out and setting: in the case of `COC(=O)c1cnn2c(O)cc(C#N)nc12` [SW396744-1, Methyl 5-cyano-7-hydroxypyrazolo[1,5-a]pyrimidine-3-carboxylate] it was “No activity up to 500 μM”; in that of `COC(=O)c1cnn2c(O)cc(CCCl)nc12` [SW398309-1, Methyl 5-(2-chloroethyl)-7-hydroxypyrazolo[1,5-a]pyrimidine-3-carboxylate], “No activity up to 500 μM”.
On the same count and under the same terms, in the case of `COC(=O)c1cnn2c(O)cc(CCO)nc12` [SW398310-1, Methyl 7-hydroxy-5-(2-hydroxyethyl)pyrazolo[1,5-a]pyrimidine-3-carboxylate] it was “No activity up to 500 μM”; in that of `C#Cc1cc(O)n2ncc(C(=O)OC)c2n1` [SW461447-1, Methyl 5-ethynyl-7-hydroxypyrazolo[1,5-a]pyrimidine-3-carboxylate], “No activity up to 500 μM”; in that of `COC(=O)c1cnn2c(O)cc(Cl)nc12` [SW461448-1], “No activity up to 500 μM”.
Consider `CC(C)(C)[C@H](NC(=O)C(F)(F)F)C(=O)N1C[C@H]2[C@@H]([C@H]1C(=O)N[C@H](C#N)C[C@@H]1CCNC1=O)C2(C)C` [nirmatrelvir], for which, in the assay on SARS-CoV-2, the EC50 is 0.075 µM. In addition, at SARS-CoV-2 main protease, the Ki was 0.003 µM.
Consider `CCC(CC)COC(=O)[C@H](C)N[P@](=O)(OC[C@H]1O[C@@](C#N)(c2ccc3c(N)ncnn23)[C@H](O)[C@@H]1O)Oc1ccccc1` [remdesivir, reference compound], for which the half-maximal effective concentration (EC50) in the assay on SARS-CoV-2-Wu-1-zsGreen amounted to 0.64 µM. In addition, the “inhibition of NiRAN activity” value with NiRAN is “inhibit NiRAN activity”.

Source of the values: PMC12013494, “Covalent inhibition of the SARS-CoV-2 NiRAN domain via an active-site cysteine” (The Journal of Biological Chemistry, 2025).
